Consider 9 compounds from ChEMBL document CHEMBL5465560, “Selectivity Literature for EUbOPEN Chemogenomic Library” (2024).

Assay [1] has as its target Tyrosine-protein kinase receptor UFO (Homo sapiens) (UniProt P30530). As to the kind of experiment: Selectivity interaction (Rxn Biology Kinase assay) EUB0001632a AXL. Conditions: at 10 µM.
Assay [2] deals with T1, Inhibitor of nuclear factor kappa-B kinase subunit beta (Homo sapiens) (UniProt O14920).
T1 sequence (whole entry): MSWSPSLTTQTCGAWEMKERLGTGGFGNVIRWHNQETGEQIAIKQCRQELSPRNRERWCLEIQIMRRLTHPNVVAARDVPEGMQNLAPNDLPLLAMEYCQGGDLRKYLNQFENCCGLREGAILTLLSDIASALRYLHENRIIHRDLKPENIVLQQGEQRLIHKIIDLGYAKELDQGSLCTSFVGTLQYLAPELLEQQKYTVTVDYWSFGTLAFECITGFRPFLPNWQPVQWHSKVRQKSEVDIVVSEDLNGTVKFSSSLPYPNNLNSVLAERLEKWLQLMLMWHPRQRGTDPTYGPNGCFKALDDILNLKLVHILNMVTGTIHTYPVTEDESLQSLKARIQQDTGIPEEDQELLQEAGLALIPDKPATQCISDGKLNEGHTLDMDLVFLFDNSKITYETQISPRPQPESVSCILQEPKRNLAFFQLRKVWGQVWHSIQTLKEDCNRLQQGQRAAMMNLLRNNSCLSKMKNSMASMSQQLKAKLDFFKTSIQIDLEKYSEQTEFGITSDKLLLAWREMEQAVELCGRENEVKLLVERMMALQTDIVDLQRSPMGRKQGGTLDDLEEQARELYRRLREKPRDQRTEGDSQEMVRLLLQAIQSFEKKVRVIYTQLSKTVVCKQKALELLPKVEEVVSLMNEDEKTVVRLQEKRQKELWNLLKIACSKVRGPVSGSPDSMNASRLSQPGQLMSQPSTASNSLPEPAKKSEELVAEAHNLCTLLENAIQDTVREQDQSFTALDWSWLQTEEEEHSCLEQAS
Description: Selectivity interaction (Kinase panel (Z-LYTE Assay)) EUB0001632a IKBKB. Conditions: at 10 µM.

In assay [3] the test system is ALK tyrosine kinase receptor (Homo sapiens), Q9UM73 [L1196M]. Description: Selectivity interaction (KinomeScan (DiscoverX)) EUB0000229b ALK. Conditions: at 1 µM.
The target of assay [4] is T2, Casein kinase I isoform alpha-like (Homo sapiens) (UniProt Q8N752).
T2 sequence (whole entry): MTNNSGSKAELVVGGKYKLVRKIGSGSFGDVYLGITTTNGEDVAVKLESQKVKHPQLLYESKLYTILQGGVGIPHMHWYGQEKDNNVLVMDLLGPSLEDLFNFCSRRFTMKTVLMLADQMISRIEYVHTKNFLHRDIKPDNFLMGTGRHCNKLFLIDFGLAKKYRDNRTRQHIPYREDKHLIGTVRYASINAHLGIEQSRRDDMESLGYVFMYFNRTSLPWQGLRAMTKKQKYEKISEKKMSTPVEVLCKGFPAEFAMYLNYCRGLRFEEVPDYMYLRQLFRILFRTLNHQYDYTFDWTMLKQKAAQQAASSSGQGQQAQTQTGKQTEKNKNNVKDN
As to the kind of experiment: Selectivity interaction (KinomeScan (DiscoverX)) EUB0000229b CSNK1A1L. Conditions: at 10 µM.

Assay [5] concerns the target Fibroblast growth factor receptor 4 (Homo sapiens, UniProt P22455). Description: Selectivity interaction (KinomeScan (DiscoverX)) EUB0000655a FGFR4. Conditions: at 10 µM.
Assay [6] concerns the target Protein kinase C eta type (Homo sapiens) (UniProt P24723). Description: Selectivity interaction (KinomeScan (DiscoverX)) EUB0001079a PRKCH. Conditions: at 1 µM.
Assay [7] concerns the target TGF-beta receptor type-2 (Homo sapiens) (UniProt P37173). As to the kind of experiment: Selectivity interaction (KinomeScan (DiscoverX)) EUB0001079a TGFBR2. Conditions: at 1 µM.
The target in assay [8] is Protein kinase C alpha type (Homo sapiens, UniProt P17252). Description: Selectivity interaction (Kinase panel (33PanQinase(R) Activity Assay)) EUB0000877a PRKCA.
Assay [9] addresses T1, Inhibitor of nuclear factor kappa-B kinase subunit beta (Homo sapiens). Description: Selectivity interaction (ActivX KiNativ screen (kinase selectivity in THP-1 cell lysates)) EUB0000639a IKBKB. The class given is subcellular. Conditions: lysate.
Assay [10] concerns the target T3, Ephrin type-B receptor 2 (Homo sapiens) (UniProt P29323).
T3 sequence (whole entry): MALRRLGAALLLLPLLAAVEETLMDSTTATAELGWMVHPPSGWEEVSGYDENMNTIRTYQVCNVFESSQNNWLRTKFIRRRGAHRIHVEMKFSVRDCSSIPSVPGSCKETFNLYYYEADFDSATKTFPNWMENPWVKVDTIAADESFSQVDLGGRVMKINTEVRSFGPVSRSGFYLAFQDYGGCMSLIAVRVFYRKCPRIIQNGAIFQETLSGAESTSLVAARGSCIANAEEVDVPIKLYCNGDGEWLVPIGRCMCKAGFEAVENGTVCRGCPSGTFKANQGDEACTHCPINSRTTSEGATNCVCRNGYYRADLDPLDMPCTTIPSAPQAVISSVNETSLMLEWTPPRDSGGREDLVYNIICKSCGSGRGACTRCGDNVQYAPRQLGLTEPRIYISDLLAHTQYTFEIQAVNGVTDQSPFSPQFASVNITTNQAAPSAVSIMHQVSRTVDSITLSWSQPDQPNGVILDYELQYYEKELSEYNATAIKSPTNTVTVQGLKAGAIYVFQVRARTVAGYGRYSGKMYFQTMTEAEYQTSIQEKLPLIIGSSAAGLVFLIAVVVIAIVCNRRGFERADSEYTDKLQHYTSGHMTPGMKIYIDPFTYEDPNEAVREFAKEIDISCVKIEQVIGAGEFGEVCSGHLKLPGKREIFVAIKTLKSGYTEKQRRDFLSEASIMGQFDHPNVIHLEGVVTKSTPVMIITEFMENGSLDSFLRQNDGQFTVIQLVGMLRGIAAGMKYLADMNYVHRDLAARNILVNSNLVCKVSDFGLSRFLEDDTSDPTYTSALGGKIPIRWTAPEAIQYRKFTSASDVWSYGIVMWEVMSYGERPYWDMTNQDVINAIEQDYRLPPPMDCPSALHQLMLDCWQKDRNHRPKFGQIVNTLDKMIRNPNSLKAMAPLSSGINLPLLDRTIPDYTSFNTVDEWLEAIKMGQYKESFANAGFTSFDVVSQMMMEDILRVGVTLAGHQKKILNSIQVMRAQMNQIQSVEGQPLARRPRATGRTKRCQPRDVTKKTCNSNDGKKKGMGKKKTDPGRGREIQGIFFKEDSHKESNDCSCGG
Description: Selectivity interaction (Kinase screening (Nanosyn)) EUB0000604a EPHB2.

Assay [11] deals with Serine/threonine-protein kinase SBK1 (Homo sapiens) (UniProt Q52WX2). As to the kind of experiment: Selectivity interaction (KinomeScan (DiscoverX)) EUB0000092b SBK1. Conditions: at 10 µM.
Assay [12] concerns the target CDK4/Cyclin D3 (Homo sapiens) (UniProt P11802+P30281). As to the kind of experiment: (§1) Selectivity interaction (KinomeScan (DiscoverX)) EUB0000045b CDK4. The class given is protein-complex assay.
Assay [13] deals with Cyclin-dependent kinase 4/cyclin D1 (Homo sapiens) (UniProt P11802+P24385). The assay is described as §1. In kind it is protein-complex assay.

Molecules are shown by their SMILES.

As usually defined, the IC50 is the point on the concentration scale where inhibition reaches its midpoint. Low readings indicate higher potency, high ones lower potency.

Sequence of Fibroblast growth factor receptor 4 (P22455 22-802 limits assumed): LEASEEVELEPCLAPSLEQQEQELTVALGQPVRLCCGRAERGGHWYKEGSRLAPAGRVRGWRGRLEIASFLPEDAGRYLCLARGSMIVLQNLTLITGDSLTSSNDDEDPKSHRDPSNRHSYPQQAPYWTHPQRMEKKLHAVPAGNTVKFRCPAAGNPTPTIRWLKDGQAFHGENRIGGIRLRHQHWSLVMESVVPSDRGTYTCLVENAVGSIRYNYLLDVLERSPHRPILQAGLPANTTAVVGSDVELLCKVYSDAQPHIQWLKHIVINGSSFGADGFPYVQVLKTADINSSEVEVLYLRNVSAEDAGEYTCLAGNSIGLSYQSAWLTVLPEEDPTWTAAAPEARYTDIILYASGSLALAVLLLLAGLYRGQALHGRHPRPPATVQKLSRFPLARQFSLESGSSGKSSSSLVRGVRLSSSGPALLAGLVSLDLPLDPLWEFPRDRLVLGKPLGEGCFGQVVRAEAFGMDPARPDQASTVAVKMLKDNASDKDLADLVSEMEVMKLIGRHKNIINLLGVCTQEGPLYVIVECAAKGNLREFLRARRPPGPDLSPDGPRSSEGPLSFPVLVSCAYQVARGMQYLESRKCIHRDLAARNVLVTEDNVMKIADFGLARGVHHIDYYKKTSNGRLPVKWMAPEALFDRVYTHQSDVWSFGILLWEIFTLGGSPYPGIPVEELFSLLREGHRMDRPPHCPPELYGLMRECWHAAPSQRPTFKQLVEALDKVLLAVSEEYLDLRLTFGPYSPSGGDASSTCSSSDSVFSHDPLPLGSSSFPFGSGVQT
Sequence of Protein kinase C eta type (Homo sapiens) (P24723 whole entry): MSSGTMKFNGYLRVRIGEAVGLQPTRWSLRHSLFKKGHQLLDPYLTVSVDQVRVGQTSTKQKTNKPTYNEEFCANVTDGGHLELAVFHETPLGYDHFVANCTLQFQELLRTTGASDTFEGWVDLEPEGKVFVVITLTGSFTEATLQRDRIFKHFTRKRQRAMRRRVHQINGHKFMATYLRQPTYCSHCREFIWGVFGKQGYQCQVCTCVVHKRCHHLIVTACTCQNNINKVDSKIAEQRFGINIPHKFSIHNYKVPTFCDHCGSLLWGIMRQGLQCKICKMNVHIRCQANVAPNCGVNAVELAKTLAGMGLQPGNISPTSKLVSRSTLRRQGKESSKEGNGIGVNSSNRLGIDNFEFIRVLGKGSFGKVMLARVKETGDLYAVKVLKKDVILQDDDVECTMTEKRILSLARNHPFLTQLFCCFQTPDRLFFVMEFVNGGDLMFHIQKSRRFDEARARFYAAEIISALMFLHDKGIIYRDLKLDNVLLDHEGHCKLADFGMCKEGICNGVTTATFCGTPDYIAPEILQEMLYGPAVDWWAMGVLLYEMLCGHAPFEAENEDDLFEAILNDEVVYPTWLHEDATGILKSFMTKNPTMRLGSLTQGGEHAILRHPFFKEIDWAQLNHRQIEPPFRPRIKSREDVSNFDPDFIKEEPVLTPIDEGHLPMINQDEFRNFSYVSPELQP
Sequence of TGF-beta receptor type-2 (Homo sapiens) (P37173 whole entry): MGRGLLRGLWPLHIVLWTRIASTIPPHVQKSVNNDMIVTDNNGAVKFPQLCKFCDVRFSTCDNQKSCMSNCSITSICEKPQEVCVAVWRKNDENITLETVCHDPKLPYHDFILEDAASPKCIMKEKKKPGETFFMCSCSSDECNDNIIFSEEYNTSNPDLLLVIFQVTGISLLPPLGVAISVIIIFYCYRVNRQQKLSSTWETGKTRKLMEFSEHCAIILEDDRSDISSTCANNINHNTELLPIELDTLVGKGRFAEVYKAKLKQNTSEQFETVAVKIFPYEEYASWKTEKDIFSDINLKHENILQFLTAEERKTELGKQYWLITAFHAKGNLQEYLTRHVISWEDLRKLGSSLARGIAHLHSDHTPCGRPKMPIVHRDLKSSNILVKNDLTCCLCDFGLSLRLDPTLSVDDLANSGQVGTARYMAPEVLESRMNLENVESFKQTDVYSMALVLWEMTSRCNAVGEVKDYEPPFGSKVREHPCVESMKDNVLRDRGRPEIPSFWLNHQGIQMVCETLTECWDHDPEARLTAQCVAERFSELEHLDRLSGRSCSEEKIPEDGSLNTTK
Sequence of Tyrosine-protein kinase receptor UFO (Homo sapiens) (P30530 whole entry): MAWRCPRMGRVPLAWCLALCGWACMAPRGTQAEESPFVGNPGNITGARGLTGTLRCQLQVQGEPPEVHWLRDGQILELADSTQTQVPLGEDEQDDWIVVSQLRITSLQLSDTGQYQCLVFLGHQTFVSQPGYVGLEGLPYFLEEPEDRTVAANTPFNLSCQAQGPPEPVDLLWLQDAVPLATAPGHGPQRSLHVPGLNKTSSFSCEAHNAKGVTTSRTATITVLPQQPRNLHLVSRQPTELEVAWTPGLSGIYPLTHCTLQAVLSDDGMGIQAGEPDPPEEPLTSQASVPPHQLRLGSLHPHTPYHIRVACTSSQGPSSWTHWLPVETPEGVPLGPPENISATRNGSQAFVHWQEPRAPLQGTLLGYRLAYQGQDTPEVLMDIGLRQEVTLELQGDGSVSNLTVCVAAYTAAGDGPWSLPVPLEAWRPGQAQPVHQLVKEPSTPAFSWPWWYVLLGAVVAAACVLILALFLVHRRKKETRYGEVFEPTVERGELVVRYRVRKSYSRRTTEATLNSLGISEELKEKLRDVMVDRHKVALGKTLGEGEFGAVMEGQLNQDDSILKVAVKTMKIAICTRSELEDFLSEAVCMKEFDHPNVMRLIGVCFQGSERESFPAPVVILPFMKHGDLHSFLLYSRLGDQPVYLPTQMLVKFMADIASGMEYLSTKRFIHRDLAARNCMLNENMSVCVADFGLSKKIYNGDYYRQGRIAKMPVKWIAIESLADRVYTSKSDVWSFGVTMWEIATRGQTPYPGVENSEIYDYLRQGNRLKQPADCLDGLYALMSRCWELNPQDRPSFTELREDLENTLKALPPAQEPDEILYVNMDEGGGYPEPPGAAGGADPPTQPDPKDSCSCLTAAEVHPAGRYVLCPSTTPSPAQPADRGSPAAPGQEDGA
Sequence of Serine/threonine-protein kinase SBK1 (Homo sapiens) (Q52WX2 whole entry): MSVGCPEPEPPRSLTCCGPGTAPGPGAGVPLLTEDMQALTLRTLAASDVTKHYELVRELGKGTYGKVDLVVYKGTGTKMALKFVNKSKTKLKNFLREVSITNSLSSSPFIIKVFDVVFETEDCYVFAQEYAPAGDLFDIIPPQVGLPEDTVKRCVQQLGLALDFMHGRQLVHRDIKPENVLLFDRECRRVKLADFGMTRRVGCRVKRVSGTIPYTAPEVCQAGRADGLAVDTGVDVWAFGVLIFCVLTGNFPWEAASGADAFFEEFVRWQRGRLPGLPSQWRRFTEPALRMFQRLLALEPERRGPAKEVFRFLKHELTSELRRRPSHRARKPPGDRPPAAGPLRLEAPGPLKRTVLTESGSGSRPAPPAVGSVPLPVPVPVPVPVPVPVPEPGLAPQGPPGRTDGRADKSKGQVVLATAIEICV
Sequence of ALK tyrosine kinase receptor (Homo sapiens), Q9UM73 [L1196M] (Q9UM73 whole entry L1196M, looked up, canonical isoform): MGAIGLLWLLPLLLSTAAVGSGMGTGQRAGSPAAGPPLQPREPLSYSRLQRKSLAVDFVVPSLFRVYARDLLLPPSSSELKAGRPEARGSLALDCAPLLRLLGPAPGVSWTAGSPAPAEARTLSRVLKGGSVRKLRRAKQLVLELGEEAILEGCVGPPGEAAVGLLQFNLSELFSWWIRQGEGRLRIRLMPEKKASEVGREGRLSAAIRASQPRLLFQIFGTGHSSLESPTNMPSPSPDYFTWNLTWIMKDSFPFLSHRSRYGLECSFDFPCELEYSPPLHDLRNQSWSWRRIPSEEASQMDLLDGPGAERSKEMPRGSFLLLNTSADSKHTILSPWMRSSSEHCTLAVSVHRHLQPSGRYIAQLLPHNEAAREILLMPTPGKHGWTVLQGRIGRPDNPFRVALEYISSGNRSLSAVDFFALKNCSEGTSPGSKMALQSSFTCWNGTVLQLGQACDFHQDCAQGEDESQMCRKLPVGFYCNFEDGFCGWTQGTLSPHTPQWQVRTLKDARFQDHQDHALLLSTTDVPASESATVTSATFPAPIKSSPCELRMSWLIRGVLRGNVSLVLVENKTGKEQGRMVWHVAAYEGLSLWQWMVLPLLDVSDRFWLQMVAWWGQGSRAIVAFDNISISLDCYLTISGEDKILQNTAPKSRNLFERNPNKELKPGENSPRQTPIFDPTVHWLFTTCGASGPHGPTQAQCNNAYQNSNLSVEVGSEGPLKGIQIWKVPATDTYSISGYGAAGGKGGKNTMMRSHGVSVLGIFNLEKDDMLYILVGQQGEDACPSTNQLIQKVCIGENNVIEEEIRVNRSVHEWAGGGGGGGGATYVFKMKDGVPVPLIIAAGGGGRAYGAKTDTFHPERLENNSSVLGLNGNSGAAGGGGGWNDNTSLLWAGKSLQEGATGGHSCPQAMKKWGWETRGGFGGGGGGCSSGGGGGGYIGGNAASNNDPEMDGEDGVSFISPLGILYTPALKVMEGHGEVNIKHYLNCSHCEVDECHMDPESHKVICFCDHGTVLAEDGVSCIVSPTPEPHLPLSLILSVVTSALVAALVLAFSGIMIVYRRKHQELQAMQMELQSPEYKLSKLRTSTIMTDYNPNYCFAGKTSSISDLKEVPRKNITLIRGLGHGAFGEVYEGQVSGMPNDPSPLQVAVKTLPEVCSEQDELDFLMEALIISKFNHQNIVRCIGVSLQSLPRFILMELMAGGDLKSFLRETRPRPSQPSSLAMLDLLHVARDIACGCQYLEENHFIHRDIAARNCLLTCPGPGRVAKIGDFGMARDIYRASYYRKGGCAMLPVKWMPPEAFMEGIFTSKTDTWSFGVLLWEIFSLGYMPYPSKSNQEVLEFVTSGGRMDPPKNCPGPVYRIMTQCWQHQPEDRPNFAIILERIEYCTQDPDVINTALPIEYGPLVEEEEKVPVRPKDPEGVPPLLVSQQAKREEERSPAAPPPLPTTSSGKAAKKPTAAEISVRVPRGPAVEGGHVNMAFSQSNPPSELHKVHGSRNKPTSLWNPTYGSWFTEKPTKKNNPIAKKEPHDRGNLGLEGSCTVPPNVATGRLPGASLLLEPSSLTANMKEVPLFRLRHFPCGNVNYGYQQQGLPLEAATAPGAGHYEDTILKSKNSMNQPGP

As to `Cn1cc(-n2cnc3c(NCc4nc5cc(Cl)c(Cl)cc5[nH]4)nc(N4CCOCC4)nc32)cn1`, the % of inhibition in assay [1] is 4.15%. Moreover, the % of control in assay [2] was -3.93%.
Take `COc1cc(N(C)c2ccnc3ccc(C(F)(F)F)cc23)cc(OC)c1OC`: the % binding in [3] was found to be 89%; in assay [4] it was 85%.
For the compound `CN(C)CCOc1ccc(-c2nc(-c3ccncc3)c(-c3ccc4c(c3)CC/C4=N\O)[nH]2)cc1`, the % of control in assay [5] turned out to be 100%.
As to `Nc1cnc(N2CCc3cc(S(=O)(=O)Nc4c(F)cc(Cl)cc4F)cc(N4CCCC4=O)c32)nc1` [TP-020n], the figures for the % of control in assay [6] and in [7] were 80% and 92%, respectively.
In assay [8], `CCC(=O)N1CC[C@H](Nc2ncnc3c2CN(c2cnc(OC)c(C(F)(F)F)c2)CC3)C1` [LENIOLISIB] displayed an IC50 of more than 10 µM.
As for `CC[C@@H]1[C@H](F)C(=O)N[C@@H]1COc1nccc2cc(C(N)=O)c(OC)cc12` [ZIMLOVISERTIB], the % of inhibition in assay [9] (at 0.01 µM) is -9.1%; in assay [9] (at 0.04 µM), 4.5%; in assay [9] (at 0.2 µM), -13.8%; in assay [9] (at 1 µM) it was 4.1%; in assay [9] (at 5 µM), -6.8%.
Take `Cc1cnc(Nc2ccc(F)cc2Cl)nc1-c1c[nH]c(C(=O)N[C@H](CO)c2cccc(Cl)c2)c1`: in [10], the % of inhibition came to 0%.
As for `CCC(=O)N1CCN(c2ccc(-n3c(=O)ccc4cnc5ccc(-c6cnc7ccccc7c6)cc5c43)cc2C(F)(F)F)CC1`, the % of control in assay [11] worked out at 88%.
For `C=CC(=O)Nc1cc(-n2c(=O)ccc3cnc4ccc(-c5ccc(NS(C)(=O)=O)cc5)cc4c32)ccc1C`, the % of control in [12] (at 1 µM) came to 100%; in assay [12] (at 10 µM) it was 93%; in [13] (at 1 µM) it was 100%; in [13] (at 10 µM) it was 100%.
